Results as given in ChEMBL document CHEMBL1201862, “PubChem BioAssay data set” (2004).
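Five compound concentrations were applied to cells in 96-well plates for 48 hours; endpoints were derived by simple linear interpolation of the resulting dose-response curve. Abbreviation: GI50, concentration required for 50% inhibition of growth.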 Active and inactive are the calls of the source. No stated cut-off is given here; in the data, active = GI50 up to about 1.1 µM and inactive = higher.

Tests used:
Assay in all cases: growth of human tumour cells (NCI), 48 h
ACHN = test system: ACHN
HT-29 = test system: HT-29
KM12 = test system: KM12
NCI-H23 = test system: NCI-H23
NCI-H522 = test system: NCI-H522
OVCAR-3 = test system: OVCAR-3
OVCAR-5 = test system: OVCAR-5
OVCAR-8 = test system: OVCAR-8
RXF 393 = test system: RXF 393
SF-295 = test system: SF-295
SF-539 = test system: SF-539
SK-MEL-28 = test system: SK-MEL-28
SK-OV-3 = test system: SK-OV-3
SN12C = test system: SN12C
U-251 = test system: U-251
UACC-62 = test system: UACC-62
BT-549 = test system: BT-549
MDA-MB-231 = test system: MDA-MB-231
MDA-N = test system: MDA-N
T47D = test system: T47D

Measured: GI50

CC(=O)OCc1nnn2c1CCC2
inactive: ACHN > 100 µM | HT-29 > 100 µM | KM12 > 100 µM | NCI-H23 > 10 µM | NCI-H522 > 100 µM | OVCAR-3 > 100 µM | OVCAR-5 > 100 µM | OVCAR-8 > 100 µM | RXF 393 > 100 µM | SF-295 > 100 µM | SF-539 > 100 µM | SK-MEL-28 > 100 µM | SK-OV-3 > 100 µM | SN12C > 100 µM | U-251 > 100 µM | UACC-62 > 100 µM

c1ccc2c(c1)nnn1c3cnccc3nc21
inactive: ACHN 30.2 µM | HT-29 28.2 µM | KM12 23.9 µM | NCI-H23 37.8 µM | NCI-H522 13.9 µM | OVCAR-3 18.9 µM | OVCAR-5 63.8 µM | OVCAR-8 30 µM | RXF 393 24.7 µM | SF-295 77.1 µM | SF-539 35.4 µM | SK-MEL-28 > 100 µM | SK-OV-3 42.2 µM | SN12C 32.4 µM | U-251 28.3 µM | UACC-62 47 µM

CC(NC(=O)C(N)Cc1ccc(O)cn1)C(=O)O (stereo not given)
inactive: ACHN > 100 µM | BT-549 > 100 µM | HT-29 > 100 µM | KM12 > 100 µM | MDA-MB-231 > 100 µM | MDA-N > 100 µM | NCI-H23 > 100 µM | NCI-H522 > 100 µM | OVCAR-3 > 100 µM | OVCAR-5 > 100 µM | OVCAR-8 > 100 µM | RXF 393 > 100 µM | SF-295 > 100 µM | SF-539 > 100 µM | SK-MEL-28 > 100 µM | SN12C > 100 µM | U-251 > 100 µM

CC(=O)O/C=C\OC1CCCC1
inactive: ACHN > 100 µM | HT-29 > 100 µM | KM12 > 100 µM | MDA-MB-231 > 100 µM | MDA-N > 100 µM | NCI-H23 > 100 µM | NCI-H522 > 100 µM | OVCAR-3 > 100 µM | OVCAR-8 > 100 µM | RXF 393 > 100 µM | SF-295 > 100 µM | SF-539 > 100 µM | SK-MEL-28 > 100 µM | SK-OV-3 > 100 µM | T47D > 100 µM | U-251 > 100 µM | UACC-62 > 100 µM

COc1ccc(CN2C(=O)C(=O)N(C)C2=O)c2ccccc12
inactive: ACHN > 10 µM | HT-29 > 10 µM | KM12 > 10 µM | MDA-MB-231 > 10 µM | MDA-N 7.06 µM | NCI-H23 > 10 µM | NCI-H522 9.68 µM | OVCAR-3 > 10 µM | OVCAR-5 > 10 µM | OVCAR-8 > 10 µM | RXF 393 > 10 µM | SF-295 > 10 µM | SF-539 > 10 µM | SK-MEL-28 > 10 µM | SK-OV-3 > 10 µM | SN12C > 10 µM | T47D > 10 µM | U-251 > 10 µM | UACC-62 > 10 µM

C/C(=C\CNc1ncnc2c1ncn2CCC(=O)OC(C)(C)C)CO
inactive: ACHN > 100 µM | HT-29 > 100 µM | KM12 > 100 µM | MDA-MB-231 > 100 µM | MDA-N > 100 µM | NCI-H23 > 100 µM | NCI-H522 > 100 µM | OVCAR-3 > 100 µM | OVCAR-5 > 100 µM | OVCAR-8 > 100 µM | RXF 393 > 100 µM | SF-295 > 100 µM | SF-539 > 100 µM | SK-MEL-28 > 100 µM | SK-OV-3 > 100 µM | SN12C > 100 µM | T47D > 100 µM | UACC-62 > 100 µM

COc1ccc2c(c1)C(=O)/C(=C/c1ccccc1)C2
inactive: BT-549 27.2 µM | HT-29 31.6 µM | KM12 > 100 µM | MDA-N 39 µM | NCI-H23 42.4 µM | NCI-H522 45.2 µM | OVCAR-3 39.2 µM | OVCAR-5 52.5 µM | OVCAR-8 > 100 µM | RXF 393 43.9 µM | SF-295 > 100 µM | SK-MEL-28 > 100 µM | SK-OV-3 > 100 µM | SN12C > 100 µM | U-251 > 100 µM | UACC-62 52.6 µM

COC1OC2=CCC3C(=O)NC(=O)C3C2[C@H](OCc2ccccc2)C1OCc1ccccc1 (stereo not given in full)
inactive: ACHN 19.9 µM | HT-29 1.82 µM | KM12 5.9 µM | NCI-H23 2.22 µM | NCI-H522 1.67 µM | OVCAR-3 1.71 µM | OVCAR-5 15.7 µM | OVCAR-8 1.6 µM | RXF 393 1.61 µM | SF-295 18.1 µM | SF-539 17.3 µM | SK-MEL-28 1.84 µM | SK-OV-3 17.1 µM | SN12C 1.74 µM | U-251 18.7 µM | UACC-62 2.46 µM
